Test results as given in patent US20260070945A1, “MACROCYCLIC IMMUNOMODULATORS” (Bristol-Myers Squibb Company, priority 2022, published 2026).
pIC50: −log10 of the molar value. Where a SMILES comes first, the peptide text is derived from it. Bridges are numbered along the chain shown (N, C = ends). [ ]: non-standard residue; d: D form. The star is where a group is joined. Phe(4-COOH) = N[C@@H](Cc1ccc(C(=O)O)cc1)C(=O)O; Bip = N[C@@H](Cc1ccc(-c2ccccc2)cc1)C(=O)O; Phe(3-Me) = Cc1cccc(C[C@H](N)C(=O)O)c1; Val(3-OH) = CC(C)(O)[C@H](N)C(=O)O; 4Pal = N[C@@H](Cc1ccncc1)C(=O)O; Cha = N[C@@H](CC1CCCCC1)C(=O)O; Cit = NC(=O)NCCC[C@H](N)C(=O)O; Carboxymethyl = O=C(O)C*; NMeA = CN[C@@H](C)C(=O)O; Orn = NCCC[C@H](N)C(=O)O; Aun = NCCCCCCCCCCC(=O)O; Dab = NCC[C@H](N)C(=O)O; AEEA = NCCOCCOCC(=O)O

The molecules below were run against T1, PD-1/PD-L1 interaction (PE-labeled human PD-L1-Ig binding to Jurkat cell line over-expressing human PD-1) (Homo sapiens, UniProt Q15116) (assay: Jurkat-PD-1 Cell Binding High-Content Screening Assay (CBA)). Details: Jurkat-hPD-1 cells, PE-labeled PD-L1-Ig 20 nM final; read-out: Jurkat HPD1 PDL1 IC50.
T1 construct: expressed in transfected cells; host or cells: Jurkat
T1 sequence (Q15116 25-288): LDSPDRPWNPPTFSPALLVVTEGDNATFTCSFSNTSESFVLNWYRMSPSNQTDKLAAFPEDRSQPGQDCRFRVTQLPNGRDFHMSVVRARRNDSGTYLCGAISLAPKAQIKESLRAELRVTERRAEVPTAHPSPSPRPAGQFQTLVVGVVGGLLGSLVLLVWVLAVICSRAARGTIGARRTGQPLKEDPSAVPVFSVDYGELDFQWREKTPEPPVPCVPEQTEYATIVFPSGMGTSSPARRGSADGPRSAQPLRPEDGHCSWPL
Procedure, shortened: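 Compound is added first to the PD-1-expressing Jurkat cells and held 2 h at 37 °C in serum-containing DMEM. The fluorescent PD-L1 fusion follows at 20 nM final for 1 h. Fixed, Hoechst-stained cells are then imaged for bound label.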

Row | SMILES | pIC50
1 | CC(C)C[C@H]1NC(=O)[C@H](C)N(C)C(=O)[C@H](Cc2ccc(OCC(=O)O)cc2)NC(=O)[C@H](Cc2ccc(-c3ccccc3)cc2)NC(=O)[C@H](Cc2ccc(OCC(=O)O)cc2)NC(=O)[C@H](Cc2c[nH]c3ccccc23)NC(=O)[C@H](CC(=O)O)NC(=O)[C@H](Cc2ccc(OCC(=O)O)cc2)NC(=O)[C@H]([C@@H](C)O)NC(=O)CSC[C@@H](C(=O)N[C@@H](CCN)C(=O)NCCOCCOCC(=O)NCCCCCCCCCCC(=O)O)NC(=O)[C@H](CC(N)=O)NC(=O)[C@H](C(C)C)NC(=O)[C@H](CC2CCCCC2)NC(=O)[C@H](CCC(=O)O)NC1=O [Example 1401] ({CH2CO}-TY(Carboxymethyl)DWY(Carboxymethyl)[Bip]Y(Carboxymethyl)[NMeA][dL]E[Cha]VNC[Dab][AEEA][Aun]-OH; thioether N-14) | 7.19
2 | Cc1cccc(C[C@@H]2NC(=O)[C@H](CC(=O)O)NC(=O)[C@H](Cc3ccc(OCC(=O)O)cc3)NC(=O)[C@H]([C@@H](C)O)NC(=O)CSC[C@@H](C(=O)NCCOCCOCC(=O)NCCCCCCCCCCC(=O)O)NC(=O)[C@H](CO)NC(=O)[C@H](C(C)(C)O)NC(=O)[C@H](CC3CCCCC3)NC(=O)[C@H](CCN)NC(=O)[C@@H](CC(C)C)NC(=O)[C@H](C)N(C)C(=O)[C@H](CCCNC(N)=O)NC(=O)[C@H](Cc3ccc(-c4ccccc4)cc3)NC(=O)[C@H](C(C)C)NC2=O)c1 [Example 1403] ({CH2CO}-TY(Carboxymethyl)D[Phe(3-Me)]V[Bip][Cit][NMeA][dL][Dab][Cha][Val(3-OH)]SC[AEEA][Aun]-OH; thioether N-14) | 8.30
3 | Cc1cccc(C[C@@H]2NC(=O)[C@H](CC(=O)O)NC(=O)[C@H](Cc3ccc(C(=O)O)cc3)NC(=O)[C@H](Cc3ccncc3)NC(=O)CSC[C@@H](C(=O)N[C@@H](CCN)C(=O)NCCOCCOCC(=O)NCCCCCCCCCCC(=O)O)NC(=O)[C@H](CCCN)NC(=O)[C@H](C(C)C)NC(=O)[C@H](CC3CCCCC3)NC(=O)[C@H](CCN)NC(=O)[C@@H](CC(C)C)NC(=O)[C@H](C)N(C)C(=O)[C@H](CCCNC(N)=O)NC(=O)[C@H](Cc3ccc(-c4ccccc4)cc3)NC(=O)[C@H](Cc3ccc(C(=O)O)cc3)NC2=O)c1 [Example 1404] ({CH2CO}-[4Pal][Phe(4-COOH)]D[Phe(3-Me)][Phe(4-COOH)][Bip][Cit][NMeA][dL][Dab][Cha]V[Orn]C[Dab][AEEA][Aun]-OH; thioether N-14) | 7.58

Now from value to molecule:

Row | pIC50 | SMILES
4 | 6.51 | CC(C)C[C@H]1NC(=O)[C@H](C)N(C)C(=O)[C@H](Cc2ccc(OCC(=O)O)cc2)NC(=O)[C@H](Cc2ccc(-c3ccccc3)cc2)NC(=O)[C@H](Cc2ccc(OCC(=O)O)cc2)NC(=O)[C@H](Cc2c[nH]c3ccccc23)NC(=O)[C@H](CC(=O)O)NC(=O)[C@H](Cc2ccc(OCC(=O)O)cc2)NC(=O)[C@H]([C@@H](C)O)NC(=O)CSC[C@@H](C(=O)N[C@@H](CCN)C(=O)NCCOCCOCC(=O)NCCCCCCCCCCC(=O)O)NC(=O)[C@H](CCCN)NC(=O)[C@H](C(C)C)NC(=O)[C@H](CC2CCCCC2)NC(=O)[C@H](CCC(=O)O)NC1=O [Example 1400] ({CH2CO}-TY(Carboxymethyl)DWY(Carboxymethyl)[Bip]Y(Carboxymethyl)[NMeA][dL]E[Cha]V[Orn]C[Dab][AEEA][Aun]-OH; thioether N-14)
5 | 6.69 | Cc1cccc(C[C@@H]2NC(=O)[C@H](CC(=O)O)NC(=O)[C@H](Cc3ccc(OCC(=O)O)cc3)NC(=O)[C@@H]([C@H](C)O)NC(=O)CSC[C@@H](C(=O)NCCOCCOCC(=O)NCCCCCCCCCCC(=O)O)NC(=O)[C@H]([C@@H](C)O)NC(=O)[C@H](C(C)C)NC(=O)[C@H](CC3CCCCC3)NC(=O)[C@H](CCN)NC(=O)[C@@H](CC(C)C)NC(=O)[C@H](C)N(C)C(=O)[C@H](CCCNC(N)=O)NC(=O)[C@H](Cc3ccc(-c4ccccc4)cc3)NC(=O)[C@H](C(C)C)NC2=O)c1 [Example 1402] ({CH2CO}-[dT]Y(Carboxymethyl)D[Phe(3-Me)]V[Bip][Cit][NMeA][dL][Dab][Cha]VTC[AEEA][Aun]-OH; thioether N-14)
